The values that follow come from patent US9790233B2, “Compositions and methods of modulating 15-PGDH activity” (CASE WESTERN RESERVE UNIVERSITY, priority 2012, dated 2017).

Molecules are shown by their SMILES. Like-named read-outs stand apart in the source and are kept apart here.

What all share (format): cell-based
The test system of experiment [1] is 15-PGDH luciferase fusion construct in LS174T reporter cell line. As to the kind of experiment: 15-PGDH-luciferase fusion gene reporter induction, LS174T cells. The conditions noted are these: Homo sapiens.
Experiment [2] has as its system 15-PGDH luciferase fusion construct in Vaco503 reporter cell line. Nature of the experiment: 15-PGDH-luciferase fusion gene reporter induction, V503 cells.
Experiment [3] has as its system 15-PGDH luciferase fusion construct in V9m reporter cell line. As to the kind of experiment: 15-PGDH-luciferase fusion gene reporter induction, V9m cells.
Where [4] appears, read: read-out: Ls174T-SC1 reporter activity, % ([…]), LS174T reporter cells, […] compound, % induction of luciferase activity over basal level, read-out: Ls174T-SC1 reporter activity, % (2.5 μM).
Setting [5] is: read-out: Ls174T-SC1 reporter activity, % ([…]), LS174T reporter cells, […] compound, % induction of luciferase activity over basal level, read-out: Ls174T-SC1 reporter activity, % (7.5 μM).
The mark [6] stands for this setting: read-out: V503-3H9-7 reporter activity, % ([…]), V503 reporter cells, […] compound, % induction of luciferase activity over basal level, read-out: V503-3H9-7 reporter activity, % (2.5 μM).
Where [7] appears, read: read-out: V503-3H9-7 reporter activity, % ([…]), V503 reporter cells, […] compound, % induction of luciferase activity over basal level, read-out: V503-3H9-7 reporter activity, % (7.5 μM).
[8] abbreviates: read-out: V9M-SC3 Reporter activity ([…]) (%), V9m reporter cells, […] compound, % induction of luciferase activity over basal level, read-out: V9M-SC3 Reporter activity (2.5 μM) (%).
The mark [9] stands for this setting: read-out: V9M-SC3 Reporter activity ([…]), %, V9m reporter cells, […] compound, % induction of luciferase activity over basal level, read-out: V9M-SC3 Reporter activity (7.5 μM), %.
The mark [10] stands for this setting: read-out: Ls174T-SC1 reporter activity, % ([…]), […], Table 18, read-out: Ls174T-SC1 reporter activity, % (2.5 μM).
The mark [11] stands for this setting: read-out: Ls174T-SC1 reporter activity, % ([…]), […], Table 18, read-out: Ls174T-SC1 reporter activity, % (7.5 μM).
The mark [12] stands for this setting: read-out: V503-3H9-7 reporter activity, % ([…]), […], Table 18, read-out: V503-3H9-7 reporter activity, % (2.5 μM).
Where [13] appears, read: read-out: V503-3H9-7 reporter activity, % ([…]), […], Table 18, read-out: V503-3H9-7 reporter activity, % (7.5 μM).
Setting [14] is: read-out: V9M-SC3 Reporter activity ([…]) (%), […], Table 18, read-out: V9M-SC3 Reporter activity (2.5 μM) (%).
Where [15] appears, read: read-out: LS174T reporter activity ([…]), […], % induction over basal level, Table 17, read-out: LS174T reporter activity (2.5 μM).
The mark [16] stands for this setting: read-out: lS174T reporter activity ([…]), […], % induction over basal level, Table 17, read-out: lS174T reporter activity (7.5 μM).
Setting [17] is: read-out: V503 reporter activity ([…]), […], % induction over basal level, Table 17, read-out: V503 reporter activity (2.5 μM).
Setting [18] is: read-out: V503 reporter activity ([…]), […], % induction over basal level, Table 17, read-out: V503 reporter activity (7.5 μM).
Where [19] appears, read: read-out: V9M reporter activity ([…]), […], % induction of luciferase activity over basal level, Table 17, read-out: V9M reporter activity (2.5 μM).
Setting [20] is: read-out: V9M reporter activity ([…]), […], % induction over basal level, Table 17, read-out: V9M reporter activity (7.5 μM).

In the case of `COc1ccc(OC)c(N(CC(=O)Nc2ccnc(F)c2)S(=O)(=O)c2ccccc2)c1` [SW208005], the activation at […] in experiment [1] (setting [4]) is 63.9%; in experiment [1] (setting [5]), 53.9%; in experiment [2] (setting [6]), 103%; in experiment [2] (setting [7]), 61.2%; in experiment [3] (setting [8]), 42.4%; in experiment [3] (setting [9]), 19.8%.
As to `COc1ccc(OC)c(N(CC(=O)Nc2ccnc(C)c2)S(=O)(=O)c2ccccc2)c1` [SW202966], the activation at […] in experiment [1] (setting [4]) was 1.82%; in experiment [1] (setting [5]) it was 78.2%; in experiment [2] (setting [6]), 115%; in experiment [2] (setting [7]), 249%; in experiment [3] (setting [8]), -0.84%; in experiment [3] (setting [9]), 67.7%.
Regarding `O=C(CN(c1cc(Cl)ccc1Cl)S(=O)(=O)c1ccccc1)Nc1cccnc1` [833428−03−8], the activation at […] is 25.1% in experiment [1] (setting [10]); 47.4% in experiment [1] (setting [11]); 96.4% in experiment [2] (setting [12]); 150% in experiment [2] (setting [13]); -4.1% in experiment [3] (setting [14]).
As to `COc1ccc(OC)c(N(CC(=O)Nc2ccccn2)S(=O)(=O)c2ccccc2)c1` [SW202941], the activation at […] in experiment [1] (setting [4]) is -23.8%; in experiment [1] (setting [5]) it was -43.2%; in experiment [2] (setting [6]), 75.9%; in experiment [2] (setting [7]) it was 83.5%; in experiment [3] (setting [8]) it was -10.9%; in experiment [3] (setting [9]) it was 2.57%.
Regarding `COc1cccc(N(CC(=O)Nc2cccnc2)S(=O)(=O)c2ccccc2)c1` [335392−39−7], the activation at […] is -0.54% in experiment [1] (setting [10]); 14.3% in experiment [1] (setting [11]); 18.9% in experiment [2] (setting [12]); 21.9% in experiment [2] (setting [13]); -12.8% in experiment [3] (setting [14]).
As for `COc1ccc(OC)c(N(CC(=O)Nc2cccnc2)S(=O)(=O)c2ccccc2C)c1` [SW202943], the activation at […] in experiment [1] (setting [4]) stood at 33.1%; in experiment [1] (setting [5]) it was 55.7%; in experiment [2] (setting [6]), 72.3%; in experiment [2] (setting [7]) it was 147%; in experiment [3] (setting [8]), 7.12%; in experiment [3] (setting [9]) it was 17.8%.
Consider `COc1ccc(OC)c(N(CC(=O)Nc2ccccc2F)S(=O)(=O)c2ccccc2)c1` [compound 503270], for which the activation at […] in experiment [1] (setting [15]) was 12.3%; in experiment [1] (setting [16]), 32.8%; in experiment [2] (setting [17]), 29.9%; in experiment [2] (setting [18]), 42.1%; in experiment [3] (setting [19]), -4.47%; in experiment [3] (setting [20]), 24.1%.
As for `O=C(CN(c1ccccn1)S(=O)(=O)c1ccccc1)Nc1ccccc1` [compound 543512], the activation at […] in experiment [1] (setting [15]) is 18.1%; in experiment [1] (setting [16]) it was 8.33%; in experiment [2] (setting [17]), -4.56%; in experiment [2] (setting [18]) it was -4.26%; in experiment [3] (setting [19]) it was 36.8%; in experiment [3] (setting [20]) it was 79.6%.
With `CCCCC(=O)c1sc2nc(-c3cccs3)cc(-c3ccccc3)c2c1N` [SW206976, 1-(3-amino-4-phenyl-6-(thiophen-2-yl)thieno[2,3-b]pyridin-2-yl)pentan-1-one], the activation at […] turned out to be 42.4% in experiment [1] (read-out: LS174T reporter activity ([…]), […], % increased luciferase activity over basal level, read-out: LS174T reporter activity (2.5 uM)); 20.6% in experiment [1] (read-out: LS174T reporter activity ([…]), […], % increased luciferase activity over basal level, read-out: LS174T reporter activity (7.5 uM)); 16.8% in experiment [2] (read-out: V503 reporter activity ([…]), […], % increased luciferase activity over basal level, read-out: V503 reporter activity (2.5 uM)); 49.5% in experiment [2] (read-out: V503 reporter activity ([…]), […], % increased luciferase activity over basal level, read-out: V503 reporter activity (7.5 uM)); 11.8% in experiment [3] (read-out: V9M reporter activity ([…]), […], % increased luciferase activity over basal level, 100 = doubling, read-out: V9M reporter activity (2.5 uM)); 17.5% in experiment [3] (read-out: V9M reporter activity ([…]), […], % increased luciferase activity over basal level, 100 = doubling, read-out: V9M reporter activity (7.5 uM)).
Consider `COc1ccc(OC)c(N(CC(=O)Nc2cccc(Br)c2)S(=O)(=O)c2ccc(OC)c(OC)c2)c1` [compound 939417], for which the activation at […] is 6.5% in experiment [1] (setting [15]); -1.64% in experiment [1] (setting [16]); 12.6% in experiment [2] (setting [17]); 16.2% in experiment [2] (setting [18]); -11.2% in experiment [3] (setting [19]); -9.81% in experiment [3] (setting [20]).
For `COc1ccc(S(=O)(=O)N(CC(=O)Nc2cccnc2)c2cc(C(F)(F)F)ccc2C(F)(F)F)cc1` [SW208008], the activation at […] in experiment [1] (setting [4]) was -2.16%; in experiment [1] (setting [5]), 10%; in experiment [2] (setting [6]), 31.9%; in experiment [2] (setting [7]) it was 39.6%; in experiment [3] (setting [8]), -5.96%; in experiment [3] (setting [9]) it was -0.92%.
On to `COc1ccc(OC)c(N(CC(=O)Nc2cccc(Cl)c2)S(=O)(=O)c2ccccc2)c1` [SW202985], for which the activation at […] was -4.89% in experiment [1] (setting [4]); 26.3% in experiment [1] (setting [5]); 79.6% in experiment [2] (setting [6]); 150% in experiment [2] (setting [7]); -27.3% in experiment [3] (setting [8]); -21.9% in experiment [3] (setting [9]).
Consider `COc1ccc(OC)c(N(CC(=O)N2CCCCC2)S(=O)(=O)c2ccccc2)c1` [SW131633], for which the activation at […] in experiment [1] (setting [4]) was 8.42%; in experiment [1] (setting [5]), 150%; in experiment [2] (setting [6]), 104%; in experiment [2] (setting [7]), -40.6%; in experiment [3] (setting [8]), 77.2%; in experiment [3] (setting [9]), 141%.
In the case of `COc1ccc(OC)c(N(CC(=O)NC(C)c2ccccc2)S(=O)(=O)c2ccc(OC)c(OC)c2)c1` (centres unmarked) [compound 967134], the activation at […] in experiment [1] (setting [15]) was 5.11%; in experiment [1] (setting [16]), 5.73%; in experiment [2] (setting [17]), 18.4%; in experiment [2] (setting [18]), 36.1%; in experiment [3] (setting [19]), -10.1%; in experiment [3] (setting [20]) it was -2.64%.
For `COc1ccc(OC)c(N(CC(=O)OC(C)(C)C)S(=O)(=O)c2ccccc2)c1` [SW202979], the activation at […] was -8.92% in experiment [1] (setting [4]); 17.8% in experiment [1] (setting [5]); 41.6% in experiment [2] (setting [6]); 133% in experiment [2] (setting [7]); -14.4% in experiment [3] (setting [8]); 10.8% in experiment [3] (setting [9]).
As to `O=C(CN(c1ccc2c(c1)OCCO2)S(=O)(=O)c1ccccc1)Nc1cccnc1` [701217-00-7], the activation at […] in experiment [1] (setting [10]) is -6.89%; in experiment [1] (setting [11]), -0.54%; in experiment [2] (setting [12]), 20.1%; in experiment [2] (setting [13]) it was 33.4%; in experiment [3] (setting [14]) it was -2.05%.
Take `COc1ccc(OC)c(N(CC(=O)Nc2ccccc2Cl)S(=O)(=O)c2ccccc2)c1` [SW202987]: the activation at […] in experiment [1] (setting [4]) was -8.3%; in experiment [1] (setting [5]), 20.6%; in experiment [2] (setting [6]), 70.1%; in experiment [2] (setting [7]), 145%; in experiment [3] (setting [8]), -22%; in experiment [3] (setting [9]), -21%.
Consider `COc1ccc(OC)c(N(CC(=O)N2CCCCCC2)S(=O)(=O)c2ccccc2)c1` [SW208000], for which the activation at […] in experiment [1] (setting [4]) worked out at 42%; in experiment [1] (setting [5]) it was 70.5%; in experiment [2] (setting [6]), 122%; in experiment [2] (setting [7]) it was 138%; in experiment [3] (setting [8]), 33.5%; in experiment [3] (setting [9]) it was 36.6%.
For `COc1ccc(OC)c(N(CC(=O)Nc2cccnc2)S(=O)(=O)c2ccc(OC)c(OC)c2)c1` [680599−58−0], the activation at […] was 11.5% in experiment [1] (setting [10]); -13.8% in experiment [1] (setting [11]); 16.7% in experiment [2] (setting [12]); 28.9% in experiment [2] (setting [13]); -5.29% in experiment [3] (setting [14]).
On to `COc1ccc(OC)c(N(CC(=O)Nc2cccnc2)S(=O)(=O)c2ccccc2Cl)c1` [SW202949], for which the activation at […] in experiment [1] (setting [4]) was -1.58%; in experiment [1] (setting [5]), -5.87%; in experiment [2] (setting [6]) it was -12.5%; in experiment [2] (setting [7]) it was 5.32%; in experiment [3] (setting [8]), 5.76%; in experiment [3] (setting [9]), -5.69%.
